From patent publication US6803368B2, “Antipsychotic aminomethyl derivatives of 7,8-dihydro-3H-6,9-dioxa-1,3-diaza-cyclopenta[a]naphthalene” (Wyeth, priority 2001, dated 2004) come the findings set out here.

T1 sequence (P61169 whole entry): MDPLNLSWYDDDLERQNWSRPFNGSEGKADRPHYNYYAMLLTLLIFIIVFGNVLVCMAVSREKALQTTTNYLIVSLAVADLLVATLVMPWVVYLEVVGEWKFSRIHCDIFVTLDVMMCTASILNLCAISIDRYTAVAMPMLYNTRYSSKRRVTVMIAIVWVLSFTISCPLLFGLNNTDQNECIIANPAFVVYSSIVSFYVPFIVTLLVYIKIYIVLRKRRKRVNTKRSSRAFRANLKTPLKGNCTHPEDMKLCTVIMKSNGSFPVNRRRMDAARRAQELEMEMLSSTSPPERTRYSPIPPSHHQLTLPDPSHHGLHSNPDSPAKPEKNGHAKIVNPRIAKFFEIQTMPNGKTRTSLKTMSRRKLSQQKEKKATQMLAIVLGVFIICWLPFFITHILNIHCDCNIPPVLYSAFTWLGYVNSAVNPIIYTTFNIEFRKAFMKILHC

This assay addresses T1, dopamine D2 receptor (Rattus norvegicus, UniProt P61169).
T1 construct: from tissue; host or cells: rat striatal brain tissue homogenate
As to the kind of experiment: Dopamine D2 receptor affinity, 3H-quinpirole binding in homogenized rat striatal brain tissue. On the procedure: Affinity for the dopamine D2 receptor was established by a modification of the standard experimental test procedure of Seemen and Schaus, European Journal of Pharmacology 203: 105-109, 1991, wherein homogenized rat striatal brain tissue is incubated with ^3H-quinpirole and various concentrations of test compound, filtered and washed and counted in a Betaplate scintillation counter.
A word on the IC50: it is the concentration that gives 50% inhibition. The compound `FC(F)(F)c1nc2c3c(ccc2[nH]1)OC[C@H](CNCCCCc1ccccc1)O3` [Example 2, (4-Phenyl-butyl)-(2-trifluoromethyl-7,8-dihydro-3H-6,9-dioxa-1,3-diaza-cyclopenta[a]naphthalen-8-ylmethyl)-amine] gave an IC50 of 0.4 nM. This lies in the sub-nanomolar range.

Regarding `FC(F)(F)c1nc2c3c(ccc2[nH]1)OCC(CNCc1ccccc1)O3` (stereo not drawn) [Example 3, Benzyl-(2-trifluoromethyl-7,8-dihydro-3H-6,9-dioxa-1,3-diaza-cyclopenta[a]naphthalen-8-ylmethyl)-amine], the IC50 turned out to be 2.2 nM. Compared with the last compound, the IC50 is about 5.5-fold higher. “(2-Trifluoromethyl-7,8-dihydro-3H-6,9-dioxa-1,3-diaza-cyclopenta[a]naphthalen-8-yl)-methylamine [Example 1]” yielded an IC50 of 260 nM.
